Assay results as given in patent US7759350B2, “Pyrimidine carboxamides” (Orchid Research Laboratories Ltd., priority 2005, dated 2010).
Blank lines part the entries; values can stand above or below the molecule they belong to.

Assays:
[1] = target: T1, COX-2 (Homo sapiens, UniProt P35354); test: Human whole blood assay, COX-2 inhibition (PGE2 after LPS); format: cell-based; details: LPS stimulated
T1 construct: Fresh blood was collected in tubes containing sodium heparin by vein puncture from healthy male volunteers; endogenous in cells; host or cells: human whole blood from healthy male volunteers, stimulated with LPS
T1 sequence (P35354 18-604): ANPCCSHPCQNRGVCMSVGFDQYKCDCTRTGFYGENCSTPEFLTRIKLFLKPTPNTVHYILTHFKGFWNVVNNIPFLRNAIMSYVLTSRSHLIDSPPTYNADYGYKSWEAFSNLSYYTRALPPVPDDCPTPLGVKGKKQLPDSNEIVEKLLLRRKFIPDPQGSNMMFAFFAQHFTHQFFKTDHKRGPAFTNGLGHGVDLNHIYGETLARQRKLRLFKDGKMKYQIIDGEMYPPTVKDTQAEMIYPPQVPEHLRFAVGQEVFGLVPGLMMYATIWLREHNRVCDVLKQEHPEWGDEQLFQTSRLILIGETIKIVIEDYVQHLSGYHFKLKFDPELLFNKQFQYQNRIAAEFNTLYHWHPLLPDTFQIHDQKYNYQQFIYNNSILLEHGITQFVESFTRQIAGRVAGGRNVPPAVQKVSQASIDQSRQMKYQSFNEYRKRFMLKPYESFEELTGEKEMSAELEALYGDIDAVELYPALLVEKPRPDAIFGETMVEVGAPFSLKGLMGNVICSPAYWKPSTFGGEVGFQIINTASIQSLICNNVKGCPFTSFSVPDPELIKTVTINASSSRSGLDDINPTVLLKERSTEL
Experimental: Human whole blood provides a protein and cell rich milieu appropriate for the study of biochemical efficacy of anti-inflammatory compounds such as selective COX-2 inhibitors. […] This is correlating with the observation that COX-2 inhibitors have no effect on prostaglandin E2 (PGE2) production in normal blood. These inhibitors were active only after incubation of human blood with lipopolysaccharide (LPS), which induces COX-2 production in the blood.
Fresh blood was collected in tubes containing sodium heparin by vein puncture from healthy male volunteers. […] Then test compounds (at various concentrations) or vehicle were added to blood. After that blood was stimulated with LPS B: 4 (10 μg/ml) and incubated for another 18 hours at 37° C. water bath. After which the blood was centrifuged, plasma was separated and stored at −80° C. (J. Pharmacol. Exp. Ther, 271, 1705, 1994; Proc. Natl. Acad. Sci. USA., 96, 7563, 1999). The plasma was assayed for PGE2 using Cayman ELISA kit as per the procedure outlined by the manufacturer (Cayman Chemicals, Ann Arbor, USA).

[2] = tested on: IL-6; test: In vitro measurement of IL-6 in human PBMC; format: cell-based; details: Conc. 0.1 μM, LPS
Experimental: (§1) In vitro Measurement of Interleukin-6 (IL-6) & Interleukin-1β (IL1β)
(§2) This assay determines the effect of test compounds on the production of IL-6 and IL1β in human PBMC (Physiol. Res. 52: 593-598, 2003). Compounds were tested for their ability to inhibit the activity of IL-6 and IL1β in human PBMC. PBMC were isolated from blood using BD Vacutainer CPT™ Cell preparation tube (BD Bio Science) and suspended in RPMI medium. The test compounds were preincubated with PBMC (0.5 million/incubation well) for 15 minutes at 37° C. and then stimulated with Lipopolysaccharide (Escherichia coli: B4; 1 μg/ml) for 18 hours at 37° C. in 5% CO2. The levels of IL-6 and IL1β in cell culture medium were estimated using enzyme linked Immunosorbent assay performed in a 96 well format as per the procedure of the manufacturer (R&D Systems, Inc. 614 McKinley Place Nebr., Minneapolis, Minn. 55413, USA).

[3] = tested on: IL-1β; test: In vitro measurement of IL-1β in human PBMC; format: cell-based; details: Conc. 0.1 μM, LPS
Experimental: as §1, §2

[4] = tested on: Carrageenan induced paw edema in rat; test: Carrageenan induced paw edema test in rat; format: in vivo; details: 5 mg/kg oral; male wistar rats; 3 hours after carrageenan
Experimental: Carrageenan Induced Paw Edema Test in Rat
The carrageenan paw edema test was performed as described by Winter et al (Proc. Soc. Exp. Biol. Med, 111, 544, 1962). Male wistar rats were selected with body weights equivalent within each group. The rats were fasted for eighteen hours with free access to water. The rats were dosed orally with the test compound suspended in vehicle containing 0.25% carboxymethylcellulose and 0.5% Tween 80. The control rats were administered with vehicle alone. After an hour, the rats were injected with 0.1 ml of 1% Carrageenan solution in 0.9% saline into the sub-plantar surface of the right hind paw. Paw volume was measured using digital plethysmograph before and after 3 hours of carrageenan injection. The average of foot swelling in drug treated animals was compared with that of control animals. Anti-inflammatory activity was expressed as the percentage inhibition of edema compared with control group [Arzneim-Forsch/Drug Res., 43 (I), 1,44-50,1993; Otterness and Bliven, Laboratory Models for Testing NSAIDs, In Non-Steroidal Anti-Inflammatory Drugs, (J. Lombardino, ed. 1985)].

[5] = tested on: NCI-H460; test: Anti-cancer screen (MTT), NCI-H460; format: cell-based
Experimental: (§3) Experimental drugs are screened for anti-cancer activity in three cell lines for their GI50, TGI and LC50 values (using five concentrations for each compound). The cell lines are maintained in DMEM containing 10% fetal bovine serum. 96 well microtiter plates are inoculated with cells in 100 μL for 24 h at 37° C., 5% CO2, 95% air and 100% relative humidity. 5000 HCT116 cells/well, 5000 NCIH460 cells/well, 10000 U251 cells/well and 5000 MDAMB231 cells/well are plated. A separate plate with these cell lines is also inoculated to determine cell viability before the addition of the compounds (T0).
Following 24 hours incubation, experimental drugs are added to the 96 well plates. […] Compounds are dissolved in dimethylsulfoxide (DMSO) to make 20 mM stock solutions on the day of drug addition and frozen at −20° C. […] Standard drugs whose anti-cancer activity has been well documented and which are regularly used are doxorubicin and SAHA.
(§4) Cells are incubated with compounds for 48 hours followed by the addition of 10 μL 3-(4,5-Dimethyl-2-thiazolyl)-2,5-diphenyl-2H-tetrazolium (MTT) solution per well and a subsequent incubation at 37° C., 5% CO2, 95% air and 100% relative humidity, protected from light. After 4 hours, well contents are aspirated carefully followed by addition of 150 μL DMSO per well. Plates are agitated to ensure solution of the formazan crystals in dimethylsulphoxide and absorbance read at 570 nm.
Percent growth is calculated for each compound's concentration relative to the control and zero measurement wells (To; viability right before compound addition). If a test well's O.D. value is greater than the To measurement for that cell line % Growth=(test−zero)/(control−zero)×100
If a test well's O.D. value is lower than the T0 measurement for that cell line, […]

[6] = tested on: MCF-7; test: Anti-cancer screen (MTT), MCF-7; format: cell-based
Experimental: [The source words this procedure for another cell line and reports this cell line under the same test.] as §3
(§5) Following 24 hours incubation, experimental drugs are added to the 96 well plates. Each plate contains one of the above cell lines and the following in triplicate: five different concentrations (0.01, 0.1, 1, 10 and 100 μM) of four different compounds, appropriate dilutions of a cytotoxic standard and control (untreated) wells. Compounds are dissolved in dimethylsulfoxide (DMSO) to make 20 mM stock solutions on the day of drug addition and frozen at −20° C. Serial dilutions of these 20 mM stock solutions are made in complete growth medium such that 100 μL of these drug solutions in medium, of final concentrations equaling 0.01, 0.1, 1, 10 and 100 μM can be added to the cells in triplicate. Standard drugs whose anti-cancer activity has been well documented and which are regularly used are doxorubicin and SAHA.
as §4
(§6) Percent growth is calculated for each compound's concentration relative to the control and zero measurement wells (To; viability right before compound addition). […]

[7] = tested on: SF-268; test: Anti-cancer screen (MTT), SF-268; format: cell-based
Experimental: [The source words this procedure for another cell line and reports this cell line under the same test.] as §3, §5, §4, §6

[8] = tested on: MDAMB-231; test: Anti-cancer screen (MTT), MDAMB-231; format: cell-based; details: Homo sapiens, MDA-MB-231, 48 hours
Experimental: as §3
Following 24 hours incubation, experimental drugs are added to the 96 well plates. […]
as §4, with “After 4 hours, well contents are aspirated carefully followed by addition of 150 μL DMSO per well.” left out
as §6

inhibition at 0.25 µM ([1]; Conc. 0.25 μM): 36.8%
Structure (SMILES): CNc1nc(-c2ccc(SC)cc2)nc(SC)c1C(=O)Nc1ccc(C)cc1 [Example 5, 4-(Methylamino)-N-(4-methylphenyl)-6-(methylthio)-2-[4-(methylthio)phenyl]pyrimidine-5-carboxamide]
inhibition at 0.1 µM [2]: 14.9% | IL-1β Inhibition (%) [3]: Not active | Inhibition of edema (%) at 5 mg/kg [4]: 53.07% | Percentage growth Lung NCI-H460 ([5]; Conc. 50 μM): 48% | Percentage growth Breast MCF-7 ([6]; Conc. 50 μM): 160% | Percentage growth CNS SF-268 ([7]; Conc. 50 μM): 106%

inhibition at 10 µM ([1]; Conc. 10 μM): 29.2%
Structure (SMILES): CNc1nc(-c2ccc(SC)cc2)nc(SC)c1C(=O)Nc1ccc(C)c(C)c1 [Example 9, N-(3,4-Dimethylphenyl)-4-(methylamino)-6-(methylthio)-2-[4-(methylthio)phenyl]pyrimidine-5-carboxamide]
Percentage growth Lung NCI-H460 ([5]; Conc. 100 μM): 0% | Percentage growth Breast MCF-7 ([6]; Conc. 100 μM): 6% | Percentage growth CNS SF-268 ([7]; Conc. 100 μM): 5%

GI50 ([5]; Homo sapiens, NCI-H460, 48 hours, MTT): 5.5 µM | GI50 [8]: 0.1 µM
Structure (SMILES): CNc1nc(-c2ccncc2)nc(SC)c1C(=O)Nc1ccc(C)c(C)c1 [Example 25, N-(3,4-Dimethylphenyl)-4-(methylamino)-6-(methylthio)-2-pyridin-4-ylpyrimidine-5-carboxamide]
